Patent publication US4886822A, “Substituted anilide compounds which are useful in the treatment of arrhythmia” (Kowa Company, Ltd., priority 1987, dated 1989)
Counter-ions that a name gives are not always drawn.

Experiments:
[1] = tested on: Chloroform-Induced Arrhythmia; assay: Activity on Chloroform-Induced Arrhythmia (ventricular fibrillation); assay type: in vivo, ICR-strain mice; conditions: Mus musculus, po, 30 mg/kg orally; ICR mice, 10 per group; chloroform vapor; read-out: Percent VF inhibition
Method: Activity on Chloroform-Induced Arrhythmia: ICR-strain mice having a body weight of 20 to 35 g (10 per group) were used, and the test compound was administered orally in a dose of 30 mg/kg. The mice were put in a 1-liter beaker, and observed for 20 minutes for their symptoms or conditions. Then, they were placed in a vessel saturated with a vapor of chloroform, and the time which elapsed until the animals ceased to breathe was measured. After the stopping of the breathing, the mice were taken out from the vessel and their cardiograms (second induction) were recorded by a memory oscilloscope (VC-10, made by Nippon Kodensha) and a linear corder (WTR331 made by Watanabe Measuring Instrument Co., Ltd.). The occurrence of ventricular fibrillation (VF) was evaluated by the cardiograms. The results are shown in Table 1 by percent VF inhibition.

[2] = tested on: Ouabain-Induced Arrhythmia; assay: Activity on Ouabain-Induced Arrhythmia; assay type: in vivo, Male hybrid adult dogs; conditions: Canis lupus familiaris, iv; continuous injection into femoral vein 0.5 mg/kg/min; anaesthetized dogs; n=3 (range); read-out: Dose required complete inhibition
Method: Activity on Ouabain-Induced Arrhythmia: Male hybrid adult dogs weighing 9 to 17 kg were anaesthetized, and fixed in the supine position under artificial respiration. The blood pressures, heart rates and second induced cardiograms (using RA-101 made by San-ei Measuring Instrument Co., Ltd.) of the animals were measured. Ouabain was first intravenously administered in a dose of 40 μg/kg, and 30 minutes later in a dose of 20 μg/kg. Furthermore, until continuous ventricular arrhythmia was obtained, 10 μg/kg of ouabain was cumulatively administered at intervals of 15 minutes. The ventricular automaticity was examined substantially in accordance with the method of Roberts et al. (J. Pharmacol. Exp. Ther. 117, 374-384, 1956). The peripheral end of the right cervical vagus nerve was stimulated with short waves (0.4-1.9 V, 1 millisecond, 20 Hz) using an electrical stimulating device (MSE-3R made by Nippon Kodensha) for 10 seconds. […] After the administration, the vagus nerve was stimulated every minute, and the inhibition of extrasystole was observed. At the same time, the presence or absence of restoration of the cardiogram to a normal rhythm was observed using the inversion of R waves as an index in ventricular arrhythmia. The anti-arrhythmic action was evaluated such that when the normal sinus rhythm was restored and extrasystole was not induced by stimulation of the vagus nerve, the result was rated as complete inhibition.

[3] = cited from earlier work; for side effects: known/reported side effects (background)

**Q.** Which inhibition in vivo at 30 mg/kg [1] does the source give for `CC(N)CC(=O)Nc1cc(OCC(F)(F)F)ccc1-c1cccnc1` (stereo not drawn) [Example 20, 3-Amino-2'-(3-pyridyl)-5'-(2,2,2-trifluoroethoxy)butyranilide monohydrochloride] here?
**A.** 100%

**Q.** What does the source list for `CCOc1ccc(-c2cccnc2)c(NC(=O)CC(C)N)c1.Cl.Cl` (stereo not drawn) [Example 33, 3-Amino-5'-ethoxy-2'-(3-pyridyl)butyranilide dihydrochloride]?
**A.** inhibition in vivo at 30 mg/kg [1]: 80%; ED100 [2]: 2 to 3 mg/kg

**Q.** For `Cc1ccc(-c2ccccn2)c(NC(=O)CC(C)N)c1` (stereo not drawn) [Example 8, 3-Amino-5'-methyl-2'-(2-pyridyl)butyranilide], which inhibition in vivo at 30 mg/kg [1] is on record?
**A.** 90%

**Q.** For `COc1ccc(-c2ncc[nH]2)c(NC(=O)CC(C)N)c1` (stereo not drawn) [Example 45, 3-Amino-2'-(2-imidazolyl)-5'-methoxybutyranilide], which inhibition in vivo at 30 mg/kg [1] is on record?
**A.** 80%

**Q.** With `C=CCOc1ccc(-c2ccccn2)cc1NC(=O)CC(C)N` (stereo not drawn) [Example 30, 2'-Allyloxy-3-amino-5'-(2-pyridyl)butyranilide dihydrochloride] as the compound, how does the inhibition in vivo at 30 mg/kg [1] read?
**A.** 70%

**Q.** For `CC(N)CC(=O)Nc1c(OCC(F)(F)F)cccc1-c1cccnc1` (stereo not drawn) [Example 23, 3-Amino-2'-(3-pyridyl)-6'-(2,2,2-trifluoroethoxy)butyranilide], which inhibition in vivo at 30 mg/kg [1] is on record?
**A.** 70%

**Q.** For `COc1ccc(-c2ccccn2)c(NC(=O)CC(C)N)c1` (stereo not drawn) [Example 1, 3-Amino-5'-methoxy-2'-(2-pyridyl)butynanilide], which inhibition in vivo at 30 mg/kg [1] is on record?
**A.** 80%

**Q.** What does the source list for `C=CCOc1ccc(-c2cccnc2)c(NC(=O)CC(C)N)c1` (stereo not drawn) [Example 28, 5'-Allyloxy-3-amino-2'-(3-pyridyl)butyranilide]?
**A.** inhibition in vivo at 30 mg/kg [1]: 70%; ED100 [2]: 1.5 to 2.8 mg/kg

**Q.** For `Cc1cccc(C)c1OCC(C)N` (stereo not drawn) [mexiletine, reference compound], which inhibition in vivo at 30 mg/kg [1] is on record?
**A.** 50%

**Q.** What about the side effects [3] of the same compound?
**A.** side effects on the digestive system and the meuropsychotic system with a high frequency

**Q.** And the “activity on the central nervous system” value ([3]; reported (background))?
**A.** has activity on the central nervous system

**Q.** And the ED100 [2]?
**A.** 2 to 4.5 mg/kg

**Q.** For `COc1ccc(-c2nc3cccnc3[nH]2)c(NC(=O)CC(C)N)c1` (stereo not drawn) [Example 46], which inhibition in vivo at 30 mg/kg [1] is on record?
**A.** 80%

**Q.** What does the source list for `CC(C)N(CCC(C(N)=O)(c1ccccc1)c1ccccn1)C(C)C` (stereo not drawn) [disopyramide]?
**A.** action on the myocardium ([3]; background): inhibiting action on the myocardium; side effects [3]: thirst, ischurin, constipation, dizziness and vomiting

**Q.** Which inhibition in vivo at 30 mg/kg [1] does the source give for `COc1ccc(C(O)c2cccnc2)cc1NC(=O)CC(C)N` (stereo not drawn) [Example 56, 3-Amino-5'-[hydroxy-(3-pyridyl)methyl]-2'-methoxybutyranilide hydrochloride] here?
**A.** 70%
